No end group written: not given here. *: point of attachment. Biotin = O=C1N[C@H]2[C@H](CS[C@H]2CCCCC(=O)*)N1
tested on: live cells in suspension or subconfluent monolayers; format: cell-based; settings: not given

Substance | Concentration (translocation activity of transport peptides) [µM] | Concentration (translocation activity), optimization of E^rns peptide [µM] | Concentration (translocation activity), mapping of restrictocin L3 loop [µM]
Biotin-KTIPSNKPKKK-NH2 [MDS-35] | 0.1 |  | 
Biotin-KRIPNKKPGKKT-NH2 [MDP-32] | 0.03 |  | 
Biotin-KCPSRRPKR-NH2 [Alpha virus E3] | 3.0 |  | 
Biotin-NRTRRNRRRVR-NH2 [Flockhouse virus peptide] | 0.03 |  | 
Biotin-KSICKTIPSNKPKKK-NH2 [MDP-21] | 1.0 |  | 
Biotin-DRRRRGSRPSGAERRRRRAAAA-NH2 [RSG-1.2] | 0.1 |  | 
Biotin-RQLRIAGRRLRGRSR-NH2 [MDM-28] |  | 0.1 | 
Biotin-RAGLQFPVGRVHRLLRK-NH2 [Antibacterial peptide Buforin, reference compound] | 3.0 |  | 
Biotin-KKPGKKTTTKPTKKPTIKTTKK-NH2 [MDS-09] | 0.3 |  | 
Biotin-RRRERRAEK-NH2 | 1.0 |  | 
Biotin-KRIPNKKPGKKTTTKPTKKPTIKTTKKDLKPQTTKPK-NH2 [MDN-12] | 1.0 |  | 
Biotin-DTRQARRNRRRRWRERQRAAAAR-NH2 [HIV-1 Rev] | 0.1 |  | 
Biotin-KKPGKKTTTKPTKK-NH2 [MDS-23] | 0.3 |  | 
Biotin-KRPAAIKKAGQAKKKK-NH2 [Bipartite] | 0.1 |  | 
Biotin-KKPTIKTTKK-NH2 [MDS-37] | 0.3 |  | 
Biotin-GNGKLIKGRTPIKFGKADCDRPPKHSQNGM-NH2 |  |  | 3.0
Biotin-KRIPNKKPKK [MDS-36] | 0.03 |  | 
Biotin-GRQLRRAGRRLRRRSR-NH2 [MDM-27] |  | 0.1 | 
Biotin-KGRTPIKFGKADCDRPPKHSQNGMGK-NH2 |  |  | 3.0

same assay, conditions: Table 9; lower concentration = higher translocation activity

Substance | Concentration (translocation activity), optimization of E^rns peptide [µM]
Rhodamine-GRQLRIAGRRLRGRSR-NH2 [A931] | 3.0

same assay, conditions: Table 11

Substance | Concentration (translocation activity of transport peptides) [µM]
Bioton-KRIPNKKPGKKTTTKPTKKPTIKTTKK-NH2 [MDP-04] | 0.3
